Results reported in BindingDB's records for doi:10.1111/cbdd.12822 (Wuhan University of Technology, 2016).

How the values were obtained:
Acetylcholinesterase = Acetylcholinesterase (Electrophorus electricus, UniProt O42275); assay: AChE and BuChE Inhibition Assay; details: pH 8; 25 °C
Experimental: (§1) This spectrophotometric assay is based on the reaction of 5,5-dithio-bis(2-nitrobenzoic)acid (DTNB) with thiocholine to yield a colored product. Shimadzu (Kyoto, Japan) UV-1700 UV-vis spectrophotometer was used to record the measurements. The enzyme solutions were prepared at 2.5 units/mL concentrationin 1% gelatin solution. BChE/AChE and compound solutions (50 μL each) in 2% DMSO at 10^-1-10^-6 mM concentration were added to 3 mL phosphate buffer (pH 8 &plusnm; 0.1)followed by incubation for 5 min at 25 °C. The reaction was commenced by the addition of acetylthiocholine iodide (ATC) (10 μL) and DTNB (50 μL) to the enzyme-inhibitor mixture. […] The blank reading contained 10 μL substrate, 50 μL DTNB, 50 μL (2%) DMSO, and 3 mL buffer. The reaction was performed in triplicate.

[1] = target: Carboxylic ester hydrolase (Equus caballus, UniProt Q9N1N9); assay: AChE and BuChE Inhibition Assay; details: pH 8; 25 °C
Experimental: as §1

[2] = target: T1, Amine oxidase [flavin-containing] A (Rattus norvegicus, UniProt P21396); assay: Monoamine Oxidase Assay; details: pH 7.4; 38 °C
T1 sequence (P21396 whole entry): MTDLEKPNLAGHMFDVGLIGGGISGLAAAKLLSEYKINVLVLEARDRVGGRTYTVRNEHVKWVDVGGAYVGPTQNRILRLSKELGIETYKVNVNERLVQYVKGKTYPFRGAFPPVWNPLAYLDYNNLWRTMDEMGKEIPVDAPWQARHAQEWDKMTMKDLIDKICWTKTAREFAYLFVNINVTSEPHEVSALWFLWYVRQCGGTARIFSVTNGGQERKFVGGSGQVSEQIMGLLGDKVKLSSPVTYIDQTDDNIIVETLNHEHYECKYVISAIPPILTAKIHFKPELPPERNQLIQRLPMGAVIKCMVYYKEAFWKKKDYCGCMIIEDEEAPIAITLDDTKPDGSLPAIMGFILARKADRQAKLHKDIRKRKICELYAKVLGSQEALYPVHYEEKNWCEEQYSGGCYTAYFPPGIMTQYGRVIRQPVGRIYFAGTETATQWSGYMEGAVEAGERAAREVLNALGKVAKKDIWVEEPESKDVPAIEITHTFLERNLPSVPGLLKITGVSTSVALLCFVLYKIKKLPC

[3] = target: T2, Amine oxidase [flavin-containing] B (Rattus norvegicus, UniProt P19643); assay: Monoamine Oxidase Assay; details: pH 7.4; 38 °C
T2 sequence (P19643 whole entry): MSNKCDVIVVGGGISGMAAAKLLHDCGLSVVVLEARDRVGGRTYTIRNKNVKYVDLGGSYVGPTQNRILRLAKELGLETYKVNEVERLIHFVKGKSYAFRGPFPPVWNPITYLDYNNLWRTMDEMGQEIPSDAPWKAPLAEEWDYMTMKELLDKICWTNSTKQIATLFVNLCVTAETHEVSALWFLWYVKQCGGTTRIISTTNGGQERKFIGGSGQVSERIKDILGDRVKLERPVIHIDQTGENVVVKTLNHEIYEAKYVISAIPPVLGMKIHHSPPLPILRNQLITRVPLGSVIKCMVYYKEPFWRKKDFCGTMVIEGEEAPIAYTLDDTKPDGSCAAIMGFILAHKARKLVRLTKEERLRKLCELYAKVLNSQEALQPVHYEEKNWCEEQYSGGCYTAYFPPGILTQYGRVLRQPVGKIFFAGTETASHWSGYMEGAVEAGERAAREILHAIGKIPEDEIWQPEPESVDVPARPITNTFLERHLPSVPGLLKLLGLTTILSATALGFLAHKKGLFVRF

Carboxylic ester hydrolase, sequence (Q9N1N9 whole entry): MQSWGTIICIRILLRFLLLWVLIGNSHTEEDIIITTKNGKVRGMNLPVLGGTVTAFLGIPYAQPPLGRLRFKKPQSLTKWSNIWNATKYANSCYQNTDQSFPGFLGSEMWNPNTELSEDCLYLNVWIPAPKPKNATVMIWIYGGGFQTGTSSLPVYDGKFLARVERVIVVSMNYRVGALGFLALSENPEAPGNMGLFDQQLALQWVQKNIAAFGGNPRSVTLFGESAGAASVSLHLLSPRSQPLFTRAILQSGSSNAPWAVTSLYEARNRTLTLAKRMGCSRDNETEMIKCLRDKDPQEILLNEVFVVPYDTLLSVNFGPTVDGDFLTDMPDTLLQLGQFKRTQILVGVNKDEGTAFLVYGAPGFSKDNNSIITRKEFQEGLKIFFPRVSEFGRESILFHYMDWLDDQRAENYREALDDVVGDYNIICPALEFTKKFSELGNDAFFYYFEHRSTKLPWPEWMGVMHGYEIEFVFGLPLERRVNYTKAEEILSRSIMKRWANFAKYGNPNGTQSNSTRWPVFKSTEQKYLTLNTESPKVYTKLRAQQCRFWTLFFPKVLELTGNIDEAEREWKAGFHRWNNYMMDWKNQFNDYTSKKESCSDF
Acetylcholinesterase, sequence (O42275 whole entry): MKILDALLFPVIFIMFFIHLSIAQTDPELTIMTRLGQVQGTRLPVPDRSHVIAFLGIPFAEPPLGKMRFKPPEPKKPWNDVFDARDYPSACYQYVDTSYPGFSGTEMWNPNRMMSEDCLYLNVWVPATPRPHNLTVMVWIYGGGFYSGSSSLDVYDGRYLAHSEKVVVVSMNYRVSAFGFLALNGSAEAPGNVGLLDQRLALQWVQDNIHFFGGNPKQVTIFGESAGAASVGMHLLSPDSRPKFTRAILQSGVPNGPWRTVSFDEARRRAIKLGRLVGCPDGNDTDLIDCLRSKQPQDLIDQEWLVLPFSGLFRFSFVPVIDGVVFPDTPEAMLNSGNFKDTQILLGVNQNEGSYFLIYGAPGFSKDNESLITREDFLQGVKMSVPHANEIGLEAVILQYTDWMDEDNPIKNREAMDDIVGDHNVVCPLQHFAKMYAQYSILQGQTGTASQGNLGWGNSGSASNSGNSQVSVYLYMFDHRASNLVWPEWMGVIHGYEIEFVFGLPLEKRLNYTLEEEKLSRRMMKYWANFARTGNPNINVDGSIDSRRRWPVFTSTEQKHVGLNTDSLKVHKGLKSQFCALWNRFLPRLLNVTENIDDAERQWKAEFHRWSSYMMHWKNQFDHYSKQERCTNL

Row | SMILES | IC50 (Acetylcholinesterase) | IC50 [1] | IC50 [2] | IC50 [3]
1 | COc1cc(/C=C2\CC(C)c3ccccc3C2=O)c(Br)c(OC)c1OC (stereo not given) [2-(2-Bromo-3,4,5-trimethoxy-benzylidene)-4-methyl-tetralone (3f)] | 0.045 µM | 12.5 µM | 0.92 µM | 0.88 µM
2 | COc1ccc(OC)c2c1CC/C(=C\c1cc(OC)c(OC)c(OC)c1Br)C2=O [2-(2-Bromo-3,4,5-trimethoxy-benzylidene)-5,8-dimethoxy-tetralone (3x)] | 0.27 µM | 9.8 µM | > 100 µM | > 100 µM
3 | COc1ccc2c(c1)CC/C(=C\c1cc(OC)c(OC)c(OC)c1Br)C2=O [2-(2-Bromo-3,4,5-trimethoxy-benzylidene)-6-methoxy-tetralone (3o)] | 1.2 µM | 17.5 µM | 32.2 µM | 12.4 µM
4 | COc1cc(/C=C2\CCc3ccc([N+](=O)[O-])cc3C2=O)c(Br)c(OC)c1OC [2-(2-Bromo-3,4,5-trimethoxy-benzylidene)-7-nitro-tetralone (3ag)] | 0.57 µM | 6.2 µM | 0.99 µM | 0.91 µM
5 | COc1ccc(/C=C2\CCc3ccc([N+](=O)[O-])cc3C2=O)c(Cl)c1OC [2-(2-Chloro-3,4-dimethoxy-benzylidene)-7-nitro-tetralone (3af)] | 2.92 µM | 17.5 µM | 1.24 µM | 2.9 µM
6 | COc1cc(/C=C2\CCc3ccccc3C2=O)c(Br)c(OC)c1OC [(2E)-2-[(2-bromo-3,4,5-trimethoxyphenyl)methylidene]-1,2,3,4-tetrahydronaphthalen-1-one (3c)] | 12.4 µM | > 100 µM | 27.3 µM | 5.6 µM
7 | COc1cc(/C=C2\CCc3c(O)cccc3C2=O)c(Br)c(OC)c1OC [(2E)-2-[(2-bromo-3,4,5-trimethoxyphenyl)methylidene]-5-hydroxy-1,2,3,4-tetrahydronaphthalen-1-one (3i)] | > 100 µM | 76.9 µM | > 100 µM | 37.2 µM
8 | COc1cccc2c1CC/C(=C\c1cc(OC)c(OC)c(OC)c1Br)C2=O [(2E)-2-[(2-bromo-3,4,5-trimethoxyphenyl)methylidene]-5-methoxy-1,2,3,4-tetrahydronaphthalen-1-one (3r)] | 67.2 µM | 92.5 µM | > 100 µM | 56 µM
9 | COc1cc2c(cc1OC)C(=O)/C(=C/c1cc(OC)c(OC)c(OC)c1Br)CC2 [(2E)-2-[(2-bromo-3,4,5-trimethoxyphenyl)methylidene]-6,7-dimethoxy-1,2,3,4-tetrahydronaphthalen-1-one (3u)] | 4.5 µM | > 100 µM | > 100 µM | 2.9 µM
10 | COc1cc(/C=C2\CCc3ccc(Cl)cc3C2=O)c(Br)c(OC)c1OC [(2E)-2-[(2-bromo-3,4,5-trimethoxyphenyl)methylidene]-7-chloro-1,2,3,4-tetrahydronaphthalen-1-one (3l)] | > 100 µM | 48.9 µM | > 100 µM | > 100 µM
11 | COc1cc(/C=C2\CCc3ccc(F)cc3C2=O)c(Br)c(OC)c1OC [(2E)-2-[(2-bromo-3,4,5-trimethoxyphenyl)methylidene]-7-fluoro-1,2,3,4-tetrahydronaphthalen-1-one (3ad)] | > 100 µM | 89.4 µM | 10.9 µM | 1.2 µM
12 | COc1ccc(/C=C2\CC(C)c3ccccc3C2=O)c(Cl)c1OC (stereo not given) [(2E)-2-[(2-chloro-3,4-dimethoxyphenyl)methylidene]-4-methyl-1,2,3,4-tetrahydronaphthalen-1-one (3e)] | 0.12 µM | 27.2 µM | 8.9 µM | 1.9 µM
13 | COc1ccc(OC)c2c1CC/C(=C\c1ccc(OC)c(OC)c1Cl)C2=O [(2E)-2-[(2-chloro-3,4-dimethoxyphenyl)methylidene]-5,8-dimethoxy-1,2,3,4-tetrahydronaphthalen-1-one (3w)] | 2.4 µM | 24.7 µM | > 100 µM | > 100 µM
14 | COc1ccc(/C=C2\CCc3c(O)cccc3C2=O)c(Cl)c1OC [(2E)-2-[(2-chloro-3,4-dimethoxyphenyl)methylidene]-5-hydroxy-1,2,3,4-tetrahydronaphthalen-1-one (3h)] | > 100 µM | > 100 µM | > 100 µM | 48.9 µM
15 | COc1cccc2c1CC/C(=C\c1ccc(OC)c(OC)c1Cl)C2=O [(2E)-2-[(2-chloro-3,4-dimethoxyphenyl)methylidene]-5-methoxy-1,2,3,4-tetrahydronaphthalen-1-one (3q)] | 81.2 µM | > 100 µM | > 100 µM | 63.7 µM
16 | COc1cc2c(cc1OC)C(=O)/C(=C/c1ccc(OC)c(OC)c1Cl)CC2 [(2E)-2-[(2-chloro-3,4-dimethoxyphenyl)methylidene]-6,7-dimethoxy-1,2,3,4-tetrahydronaphthalen-1-one (3t)] | 27.2 µM | > 100 µM | > 100 µM | 5.4 µM
17 | COc1ccc2c(c1)CC/C(=C\c1ccc(OC)c(OC)c1Cl)C2=O [(2E)-2-[(2-chloro-3,4-dimethoxyphenyl)methylidene]-6-methoxy-1,2,3,4-tetrahydronaphthalen-1-one (3n)] | 14.6 µM | 22.9 µM | 47.2 µM | 19.2 µM
18 | COc1ccc(/C=C2\CCc3ccc(F)cc3C2=O)c(Cl)c1OC [(2E)-2-[(2-chloro-3,4-dimethoxyphenyl)methylidene]-7-fluoro-1,2,3,4-tetrahydronaphthalen-1-one (3ac)] | > 100 µM | > 100 µM | 17.2 µM | 2.9 µM
19 | COc1cccc(/C=C2\CC(C)c3ccccc3C2=O)c1Cl (stereo not given) [(2E)-2-[(2-chloro-3-methoxyphenyl)methylidene]-4-methyl-1,2,3,4-tetrahydronaphthalen-1-one (3d)] | 1.9 µM | 49.9 µM | 10.2 µM | 3.2 µM
20 | COc1cccc(/C=C2\CCc3c(OC)ccc(OC)c3C2=O)c1Cl [(2E)-2-[(2-chloro-3-methoxyphenyl)methylidene]-5,8-dimethoxy-1,2,3,4-tetrahydronaphthalen-1-one (3v)] | 13.2 µM | > 100 µM | > 100 µM | > 100 µM
21 | COc1cccc(/C=C2\CCc3c(O)cccc3C2=O)c1Cl [(2E)-2-[(2-chloro-3-methoxyphenyl)methylidene]-5-hydroxy-1,2,3,4-tetrahydronaphthalen-1-one (3g)] | > 100 µM | > 100 µM | > 100 µM | 56.4 µM
22 | COc1cccc(/C=C2\CCc3c(OC)cccc3C2=O)c1Cl [(2E)-2-[(2-chloro-3-methoxyphenyl)methylidene]-5-methoxy-1,2,3,4-tetrahydronaphthalen-1-one (3p)] | 89.5 µM | > 100 µM | > 100 µM | 78.9 µM
23 | COc1cc2c(cc1OC)C(=O)/C(=C/c1cccc(OC)c1Cl)CC2 [(2E)-2-[(2-chloro-3-methoxyphenyl)methylidene]-6,7-dimethoxy-1,2,3,4-tetrahydronaphthalen-1-one (3s)] | 29.5 µM | > 100 µM | > 100 µM | 7.2 µM
24 | COc1ccc2c(c1)CC/C(=C\c1cccc(OC)c1Cl)C2=O [(2E)-2-[(2-chloro-3-methoxyphenyl)methylidene]-6-methoxy-1,2,3,4-tetrahydronaphthalen-1-one (3m)] | 43.9 µM | > 100 µM | > 100 µM | > 100 µM
25 | COc1cccc(/C=C2\CCc3ccc(F)cc3C2=O)c1Cl [(2E)-2-[(2-chloro-3-methoxyphenyl)methylidene]-7-fluoro-1,2,3,4-tetrahydronaphthalen-1-one (3ab)] | > 100 µM | > 100 µM | 19.6 µM | 6.9 µM
